Key:
[1] = test system: bone loss induced by ovariectomy; experiment: Inhibitory effect on bone loss induced by ovariectomy in ovariectomized mouse models (tibia, μ-CT, TRAP staining); format: in vivo, female mice; details: ovariectomized mice, intraperitoneal for 3 weeks at intervals of 2 days, versus control group 1 (ovariectomy)
Description: In order to examine the inhibitory effects of the compounds on the bone loss induced by ovariectomy in ovariectomized mouse models, 8-week old female mice were divided into control groups 1 and 2 and experimental group 1, each containing 5 mice.
The mice in control group 1 and experimental group 1 were subjected to ovariectomy via laparotomy, and the mice in control group 2 were subjected to laparotomy in the same manner as in control group 1 and experimental group 1, but without ovariectomy, and served as a sham control.
The compound of Example 13 was intraperitoneally administered to the mice of experimental group 1 for 3 weeks at intervals of 2 days after 7 days of recovery from the surgery. After verification of excision of ovary of mice, both tibiae were harvested from the mice of experimental group 1 and control groups 1 and 2, and cross-sections were consecutively imaged using μ-CT (Skyscan 1076, SKYS CAN N. V.) and V-works program (Cybermed) and reconstructed into 3-dimensional images. Then, the bone volume, bone density, and the number of trabecular bones were quantified using an image analysis program.
The experimental results and statistical analysis using ANOVA (one-way analysis of variance) if verify the Newman kulseu (Newman-Keuls test) significance is verified using the […] level or less, a significance test was performed.
In FIG. 9, the bone volume is expressed as a percentage (BV/TV %) of the bone volume (BV) of the harvested tibia to the total bone volume (TV), and in FIG. 11, the number of trabecular bones is expressed as the number of trabecular bones) per 1 millimeter (mm).
Moreover, the harvested tibiae were placed in PBS, formaldehyde added, and fixed for 24 hours and then decalcified in PBS to which was added 0.5 M EDTA. […] Moreover, the number of osteoclasts was analyzed under a microscope using the Osteomeasure software program (Osteometrics Inc., USA), and the results are shown in FIG. 13, in which the quantification of osteoclasts is expressed as the number of osteoclasts per bone surface 1 millimeter (mm). […]

[2] = test system: differentiation of macrophages into osteoclasts; experiment: Inhibitory effect on differentiation of macrophages into osteoclasts (rhM-CSF/RANKL, TRAP staining); format: cell-based, mice (C57BL/6J); details: mouse bone marrow macrophages, rhM-CSF 30 ng/mL + RANKL 200 ng/mL, 5 days, light microscope, Examples 2, 3, 7, 8, 9, 11 tested against Comparative Example 1 as control, FIGS. 1 to 6
Experimental: Bone marrow cells were harvested from 4 to 5-week old male mice (C57BL/6J). Specifically, mice were sacrificed by cervical dislocation, and femur and tibia were extracted while removing muscles adhered around the bone with scissors and soaked in phosphate buffered saline (PBS). A 1 mL syringe filled with α-minimum essential medium (α-MEM) was put into one end of the femur and tibia from which bone marrow cells were then harvested.
The bone marrow cells were cultured to obtain macrophages. Specifically, the obtained bone marrow cells were placed in a 50 mL tube and centrifuged at 1500 rpm for 5 minutes. Then, the supernatant was removed, and a 3:1 mixture of a Gey's solution and PBS was added and maintained at room temperature for about 2 to 3 minutes. After another centrifugation (1500 rpm, 5 minutes), the supernatant was removed, α-MEM was added, followed by stirring, and then the cells were cultured in a 10 cm cell culture dish at 37° C. for 24 hours. After the third centrifugation (1500 rpm, 5 minutes), the supernatant was removed, a culture medium and a macrophage differentiation factor rhM-CSF (30 ng/mL) were added, and then the cells were cultured in a 10 cm cell culture dish at 37° C. for 3 days. After 3 days, macrophages adhered to the dish were scraped and collected in a tube, followed by centrifugation (1500 rpm, 5 minutes). […]

Q: How did the “reduction in bone volume of the tibia (BV/TV %)” value ([1]; FIG. 9) turn out when `COc1cc(/C=C/c2nn(-c3ccccn3)c(O)c2Cc2ccccc2)ccc1O` [Example 13, 1-(pyridin-2-yl)-3-[(3-methoxy-4-hydroxyphenyl)-E-ethenyl]-4-benzyl-1H-pyrazol-5-ol] was run?
A: Its value is “less than that in control group 1”.

Q: And the “bone density of the tibia” value ([1]; FIG. 10)?
A: The value was “higher”.

Q: What about the “number of trabecular bones (per 1 mm)” value ([1]; FIG. 11) of the same molecule?
A: The value was “higher”.

Q: How did the “differentiation of macrophages into osteoclasts” value [2] turn out when `Oc1cc(-c2ccccc2)nn1-c1ccccn1` [Comparative Example 1, 3-phenyl-1-(pyridin-2-yl)-1H-pyrazol-5-ol] was run?
A: Its value is “more macrophages differentiated into osteoclasts”.

Source: US20140128418A1, “PYRAZOLE DERIVATIVES, PREPARATION METHOD THEREOF, AND COMPOSITION FOR PREVENTING AND TREATING OSTEOPOROSIS CONTAINING SAME” (EWHA UNIVERSITY-INDUSTRY COLLABORATION FOUNDATION, priority 2011, published 2014)
